Data: EP2970215B1, “PYRROLIDINE DERIVATIVES, PHARMACEUTICAL COMPOSITIONS CONTAINING THEM, AND THEIR USE IN THERAPY” (AbbVie Deutschland GmbH & Co. KG, priority 2013, dated 2014)

Target: T1, human GlyT1c transporter (Homo sapiens, UniProt P48067)
T1 construct: expressed in transfected cells; host or cells: CHO cells (recombinant; line hGlyT1c_5_CHO is named for the uptake assay)
T1 sequence (P48067 1-706): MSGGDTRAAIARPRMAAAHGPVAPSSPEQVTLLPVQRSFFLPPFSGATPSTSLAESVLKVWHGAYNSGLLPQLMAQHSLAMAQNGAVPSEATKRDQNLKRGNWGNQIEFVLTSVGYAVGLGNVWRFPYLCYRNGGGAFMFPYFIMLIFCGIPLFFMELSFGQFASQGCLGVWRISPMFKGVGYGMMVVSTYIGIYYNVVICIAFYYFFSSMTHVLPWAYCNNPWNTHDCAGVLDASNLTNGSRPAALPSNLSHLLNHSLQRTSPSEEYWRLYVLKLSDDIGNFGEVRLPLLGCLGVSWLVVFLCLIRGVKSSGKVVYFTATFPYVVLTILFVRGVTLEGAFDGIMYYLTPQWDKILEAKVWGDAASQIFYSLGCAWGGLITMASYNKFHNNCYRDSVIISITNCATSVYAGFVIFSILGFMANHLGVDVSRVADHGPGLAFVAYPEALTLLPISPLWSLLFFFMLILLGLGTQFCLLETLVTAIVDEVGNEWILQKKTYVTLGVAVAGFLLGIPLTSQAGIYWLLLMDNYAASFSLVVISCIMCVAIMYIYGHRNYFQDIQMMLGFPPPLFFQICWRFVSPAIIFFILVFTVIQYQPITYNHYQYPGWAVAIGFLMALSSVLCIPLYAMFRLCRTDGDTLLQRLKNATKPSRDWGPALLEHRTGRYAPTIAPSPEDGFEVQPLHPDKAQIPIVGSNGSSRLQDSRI
Experiment: Radioligand binding assay using recombinant CHO cell membranes expressing human GlyT1
Details: radioligand binding to human GlyT1c transporter-expressing membranes
From the text: 2. Radioligand binding assays using recombinant CHO cell membranes expressing human GlyT1: […]

| Compound | Ki [nM] |
| --- | --- |
| Cn1cnc(S(=O)(=O)N2C[C@H](Nc3cccc4c3CNC4=O)[C@@H](c3ccccc3)C2)c1 [Example 421, 4-({(3R,4S)-1-[(1-methyl-1H-imidazol-4-yl)sulfonyl]-4-phenylpyrrolidin-3-yl}amino)-2,3-dihydro-1H-isoindol-1-one] | ≤ 10000 |
| Cn1cnc(S(=O)(=O)N2C[C@H](Nc3cccc(S(C)(=O)=O)c3)[C@@H](c3ccccc3)C2)c1 [Example 422, (3R,4S)-1-[(1-methyl-1H-imidazol-4-yl)sulfonyl]-N-[3-(methylsulfonyl)phenyl]-4-phenylpyrrolidin-3-amine] | ≤ 1000 |
| Cn1cnc(S(=O)(=O)N2C[C@H](NCC3CNC(C(F)(F)F)CN3)[C@@H](c3ccccc3)C2)c1 (stereo partly drawn) [Example 423, (3R,4S)-1-[(1-methyl-1H-imidazol-4-yl)sulfonyl]-4-phenyl-N-{[5-(trifluoromethyl)piperazin-2-yl]methyl}pyrrolidin-3-amine] | ≤ 10000 |
| Cn1cnc(S(=O)(=O)N2C[C@H](NCC3(C)CCOCC3)[C@@H](c3ccccc3)C2)c1 [Example 429, (3R,4S)-1-[(1-methyl-1H-imidazol-4-yl)sulfonyl]-N-[(4-methyltetrahydro-2H-pyran-4-yl)methyl]-4-phenylpyrrolidin-3-amine] | > 10000 |
| Cn1cnc(S(=O)(=O)N2C[C@H](NCc3scnc3-c3ccccc3)[C@@H](c3ccccc3)C2)c1 [Example 430, (3R,4S)-1-[(1-methyl-1H-imidazol-4-yl)sulfonyl]-4-phenyl-N-[(4-phenyl-1,3-thiazol-5-yl)methyl]pyrrolidin-3-amine] | > 10000 |
| Cc1cnc(CN[C@H]2CN(S(=O)(=O)c3cn(C)cn3)C[C@@H]2c2ccccc2)s1 [Example 431, (3R,4S)-1-[(1-methyl-1H-imidazol-4-yl)sulfonyl]-N-[(5-methyl-1,3-thiazol-2-yl)methyl]-4-phenylpyrrolidin-3-amine] | ≤ 10000 |
| Cn1cnc(S(=O)(=O)N2C[C@H](NCc3c(Cl)cncc3Cl)[C@@H](c3ccccc3)C2)c1 [Example 432, (3R,4S)-N-[(3,5-dichloropyridin-4-yl)methyl]-1-[(1-methyl-1H-imidazol-4-yl)sulfonyl]-4-phenylpyrrolidin-3-amine] | ≤ 10000 |
| Cc1ncsc1CN[C@H]1CN(S(=O)(=O)c2cn(C)cn2)C[C@@H]1c1ccccc1 [Example 434, (3R,4S)-1-[(1-methyl-1H-imidazol-4-yl)sulfonyl]-N-[(4-methyl-1,3-thiazol-5-yl)methyl]-4-phenylpyrrolidin-3-amine] | ≤ 10000 |
| CC(C)CN[C@H]1CN(S(=O)(=O)c2cn(C)cn2)C[C@@H]1c1ccccc1 [Example 439, (3R,4S)-1-[(1-methyl-1H-imidazol-4-yl)sulfonyl]-N-(2-methylpropyl)-4-phenylpyrrolidin-3-amine] | ≤ 1000 |
| Cc1nc(C)c(CN[C@H]2CN(S(=O)(=O)c3cn(C)cn3)C[C@@H]2c2ccccc2)s1 [Example 441, (3R,4S)-N-[(2,4-dimethyl-1,3-thiazol-5-yl)methyl]-1-[(1-methyl-1H-imidazol-4-yl)sulfonyl]-4-phenylpyrrolidin-3-amine] | ≤ 10000 |
| Cn1cnc(S(=O)(=O)N2C[C@H](NCc3cc4cccnc4s3)[C@@H](c3ccccc3)C2)c1 [Example 442, (3R,4S)-1-[(1-methyl-1H-imidazol-4-yl)sulfonyl]-4-phenyl-N-(thieno[2,3-b]pyridin-2-ylmethyl)pyrrolidin-3-amine] | ≤ 1000 |
| Cc1oc2ccccc2c1CN[C@H]1CN(S(=O)(=O)c2cn(C)cn2)C[C@@H]1c1ccccc1 [Example 443, (3R,4S)-N-[(2-methyl-1-benzofuran-3-yl)methyl]-1-[(1-methyl-1H-imidazol-4-yl)sulfonyl]-4-phenylpyrrolidin-3-amine] | ≤ 1000 |
| Cn1cnc(S(=O)(=O)N2C[C@H](NCc3cncc(-c4ccc(F)cc4)c3)[C@@H](c3ccccc3)C2)c1 [Example 445, (3R,4S)-N-{[5-(4-fluorophenyl)pyridin-3-yl]methyl}-1-[(1-methyl-1H-imidazol-4-yl)sulfonyl]-4-phenylpyrrolidin-3-amine] | ≤ 1000 |
| Cn1cnc(S(=O)(=O)N2C[C@H](NCC3CCOC3)[C@@H](c3ccccc3)C2)c1 (stereo partly drawn) [Example 447, (3R,4S)-1-[(1-methyl-1H-imidazol-4-yl)sulfonyl]-4-phenyl-N-(tetrahydrofuran-3-ylmethyl)pyrrolidin-3-amine] | ≤ 10000 |
| CCC(CC)CN[C@H]1CN(S(=O)(=O)c2cn(C)cn2)C[C@@H]1c1ccccc1 [Example 449, (3R,4S)-N-(2-ethylbutyl)-1-[(1-methyl-1H-imidazol-4-yl)sulfonyl]-4-phenylpyrrolidin-3-amine] | ≤ 1000 |
| CCC(C)(C)CN[C@H]1CN(S(=O)(=O)c2cn(C)cn2)C[C@@H]1c1ccccc1 [Example 450, (3R,4S)-N-(2,2-dimethylbutyl)-1-[(1-methyl-1H-imidazol-4-yl)sulfonyl]-4-phenylpyrrolidin-3-amine] | ≤ 1000 |
| Cn1cnc(S(=O)(=O)N2C[C@H](NCc3nc4ccccc4s3)[C@@H](c3ccccc3)C2)c1 [Example 453, (3R,4S)-N-(1,3-benzothiazol-2-ylmethyl)-1-[(1-methyl-1H-imidazol-4-yl)sulfonyl]-4-phenylpyrrolidin-3-amine] | ≤ 1000 |
| Cc1csc(CN[C@H]2CN(S(=O)(=O)c3cn(C)cn3)C[C@@H]2c2ccccc2)n1 [Example 454, (3R,4S)-1-[(1-methyl-1H-imidazol-4-yl)sulfonyl]-N-[(4-methyl-1,3-thiazol-2-yl)methyl]-4-phenylpyrrolidin-3-amine] | ≤ 10000 |
| Cn1cnc(S(=O)(=O)N2C[C@H](NCc3nc4c(s3)CCCC4)[C@@H](c3ccccc3)C2)c1 [Example 456, (3R,4S)-1-[(1-methyl-1H-imidazol-4-yl)sulfonyl]-4-phenyl-N-(4,5,6,7-tetrahydro-1,3-benzothiazol-2-ylmethyl)pyrrolidin-3-amine] | ≤ 1000 |

Other lines, results leading:

| Ki [nM] | Compound |
| --- | --- |
| ≤ 100 | Cn1cnc(S(=O)(=O)N2C[C@H](Nc3ccc(F)c(F)c3)[C@@H](c3ccc(F)cc3)C2)c1 [Example 418, (3R,4S)-N-(3,4-difluorophenyl)-4-(4-fluorophenyl)-1-[(1-methyl-1H-imidazol-4-yl)sulfonyl]pyrrolidin-3-amine] |
| ≤ 1000 | Cn1cnc(S(=O)(=O)N2C[C@H](Nc3ncc(F)cn3)[C@@H](c3ccccc3)C2)c1 [Example 424, 5-fluoro-N-{(3R,4S)-1-[(1-methyl-1H-imidazol-4-yl)sulfonyl]-4-phenylpyrrolidin-3-yl}pyrimidin-2-amine] |
| ≤ 1000 | Cn1cnc(S(=O)(=O)N2C[C@H](NCCCC(F)(F)F)[C@@H](c3ccccc3)C2)c1 [Example 426, (3R,4S)-1-[(1-methyl-1H-imidazol-4-yl)sulfonyl]-4-phenyl-N-(4,4,4-trifluorobutyl)pyrrolidin-3-amine] |
| ≤ 100 | Cn1cnc(S(=O)(=O)N2C[C@H](NCCC3CCCC3)[C@@H](c3ccccc3)C2)c1 [Example 427, (3R,4S)-N-(2-cyclopentylethyl)-1-[(1-methyl-1H-imidazol-4-yl)sulfonyl]-4-phenylpyrrolidin-3-amine] |
| ≤ 100 | CCCCC(CC)CN[C@H]1CN(S(=O)(=O)c2cn(C)cn2)C[C@@H]1c1ccccc1 (stereo partly drawn) [Example 433, (3R,4S)-N-(2-ethylhexyl)-1-[(1-methyl-1H-imidazol-4-yl)sulfonyl]-4-phenylpyrrolidin-3-amine] |
| ≤ 100 | Cn1cnc(S(=O)(=O)N2C[C@H](NCc3sc(Cl)nc3Cl)[C@@H](c3ccccc3)C2)c1 [Example 435, (3R,4S)-N-[(2,4-dichloro-1,3-thiazol-5-yl)methyl]-1-[(1-methyl-1H-imidazol-4-yl)sulfonyl]-4-phenylpyrrolidin-3-amine] |
| ≤ 1000 | Cn1cnc(S(=O)(=O)N2C[C@H](NCC(C)(C)C)[C@@H](c3ccccc3)C2)c1 [Example 436, (3R,4S)-N-(2,2-dimethylpropyl)-1-[(1-methyl-1H-imidazol-4-yl)sulfonyl]-4-phenylpyrrolidin-3-amine] |
| ≤ 100 | Cc1ccc2sc(CN[C@H]3CN(S(=O)(=O)c4cn(C)cn4)C[C@@H]3c3ccccc3)cc2c1 [Example 437, (3R,4S)-N-[(5-methyl-1-benzothiophen-2-yl)methyl]-1-[(1-methyl-1H-imidazol-4-yl)sulfonyl]-4-phenylpyrrolidin-3-amine] |
| ≤ 100 | Cn1cnc(S(=O)(=O)N2C[C@H](NCc3sc4ccccc4c3Cl)[C@@H](c3ccccc3)C2)c1 [Example 440, (3R,4S)-N-[(3-chloro-1-benzothiophen-2-yl)methyl]-1-[(1-methyl-1H-imidazol-4-yl)sulfonyl]-4-phenylpyrrolidin-3-amine] |
| ≤ 100 | CCCC(C)CN[C@H]1CN(S(=O)(=O)c2cn(C)cn2)C[C@@H]1c1ccccc1 (stereo partly drawn) [Example 446, (3R,4S)-1-[(1-methyl-1H-imidazol-4-yl)sulfonyl]-N-(2-methylpentyl)-4-phenylpyrrolidin-3-amine] |
| ≤ 100 | Cc1cc(CN[C@H]2CN(S(=O)(=O)c3cn(C)cn3)C[C@@H]2c2ccccc2)sc1C [Example 455, (3R,4S)-N-[(4,5-dimethylthiophen-2-yl)methyl]-1-[(1-methyl-1H-imidazol-4-yl)sulfonyl]-4-phenylpyrrolidin-3-amine] |
